Experimental data taken from patent US20050107430A1, “Antimicrobial and antiviral compounds” (priority 2003, published 2005).
Converted amounts (≈) assume the structure as drawn.

Tests used:
P. aeruginosa = test: NCCLS MIC/MBC microdilution, P. aeruginosa; conditions: Table 3; P. aeroginosa is L13 from Table 2
Description: (§1) Standard NCCLS (e.g., National Committee for Clinical Laboratory Standards) methods for determining MIC (e.g., minimum inhibitory concentration) and MBC (e.g., minimum bactericidal concentration) were used. 96 well micro-well plates were placed in a humid chamber and frozen at −70° C. [BBL Mueller Hinton Broth]. Drugs (e.g., antimicrobial compounds of the present invention) were added to a series of wells through 2 fold serial dilutions. 100 μl of a 2×10^−3 M solution of the respective Tx compounds was added to the first well in a series. 100 μl of the inoculum (e.g., microorganism) was added to the well. […] For example, the concentration in well 8 would be less than the concentration of the same drug in well 7. Inoculum (e.g., microorganism) that was added to the wells was prepared from 24 hour growth of an isolate on 5% sheep blood/Columbia agar plates. 5 to 10 representative colonies were then picked from the plates and added to saline and adjusted to 0.5 McFarland turbidity. Next the sample was diluted 1:100 in saline, such that 100 μl of the diluted sample contained approximately 1×10^5 microbes. 100 μl of the diluted sample was added to each well in a series of drug concentrations. Once the cells were added to the wells, the well plates were incubated at 35° C. without CO2 for 48 hrs and at this time the minimum bactericidal concentration was determined.
(§2) The MIC of Tx-118, Tx-147, and Tx-197 for certain Staphylococcus aureus (MRSA), Pseudomonas aeruginosa, Stenotrophomonas maltophilia, and VRE Enterococcus faecalis was determined using standard NCCLS methods. The first well in each series of decreasing drug concentrations contained 1×10^−4 M of a drug. The drug was diluted by serial two fold dilutions through all 12 wells in a series. There was a final DMSO concentration of 2% in the first well and 1% in the second well, etc. Tests with Tx-118 and Tx-197 were performed in triplicate, and tests with Tx-147 were performed in duplicate.

[1] = system: VRE (Vancomycin resistant Enterococci); test: NCCLS MIC/MBC microdilution, VRE; conditions: Table 3; 24 h and 48 h same results
Description: as §1, §2

[2] = system: MRSA (oxacillin/methicillin resistant S. aureus); test: NCCLS MIC/MBC microdilution, MRSA; conditions: Table 3; 24 h and 48 h same results
Description: as §1, §2

[3] = system: Stenotrophomonas maltophilia; test: NCCLS MIC/MBC microdilution, S. maltophilia; conditions: Table 3; 24 h and 48 h same results
Description: as §1, §2

Mycobacterium fortutium = test: MIC, Mycobacterium fortutium; format: cell-based; conditions: Table 3
[4] = system: chloroquin (CQ) resistant strain of Plasmodium falciparum (Pf); test: In vitro efficacy against chloroquin resistant Plasmodium falciparum; format: cell-based; conditions: CQ resistant P. falciparum, in vitro, triplicate
Description: Tx-5 and Tx-84 were tested for in vitro efficacy against a chloroquin (CQ) resistant strain of Plasmodium falciparum (Pf). The tests were performed in triplicate at a wide variety of concentrations and evaluated for effect compared with CQ.

[5] = system: Mycobacterium tuberculosis; conditions: Table 3
M. avium intracellularie = test: MIC, M. avium intracellularie; format: cell-based, Mycobacterium avium intracellulare; conditions: Table 3
various microorganisms = test: Antimicrobial activity tests, various microorganisms; conditions: Example 1 microbes

Structure (SMILES) | MIC, Mycobacterium tuberculosis [5] | MIC, M. avium intracellularie (M. avium intracellularie) | further results
O=C1[C@@H](O)[C@H](c2ccccc2)N1c1cc2c3ccccc3ccc2c2ccccc12 (relative stereo) [Tx-197, Trans-1-N-(6′-chrysenyl)-3-hydroxy-4-phenyl-2-azetidinone] | – | – | MIC, P. aeruginosa (P. aeruginosa): No activity; MIC, VRE enterococcus (E. faecalis) [1]: No activity; MIC, MRSA (methicillin resistant) [2]: No activity; MIC, Stenotrophomonas maltophilia [3]: No activity; MIC, Mycobacterium fortutium (Mycobacterium fortutium): No activity
CCN(CC)CCCC(C)Nc1ccnc2cc(Cl)ccc12 (stereo not shown) [CQ, chloroquin, reference compound] | – | – | IC50 [4]: 606 nM
CN1CCN(C(=O)CCC(=O)Nc2cc3c4ccccc4ccc3c3ccccc23)CC1 [Tx-1, N-(6′-chrysenyl)-4-(4′N methyl-piperazinyl)-butane-1,4-dicarboxiamide] | 2.9 µg/mL (≈ 6.81 µM) | 46 µg/mL (≈ 108 µM) | –
CN1CCN(C(=O)CCC(=O)Nc2ccc3c(ccc4c5ccccc5ccc34)c2)CC1 [Tx-2, N-(2′-chrysenyl)-4-(4′N-methyl-piperazinyl)-butane-1,4-dicarboxiamide] | 1 µg/mL (≈ 2.35 µM) | 15.6 µg/mL (≈ 36.7 µM) | –
O=C(CCC(=O)N1CCCCC1)Nc1cc2c3ccccc3ccc2c2ccccc12 [Tx-3, N-(6′-chrysenyl)-4-(1′-piperidinyl)-butane-1-4-dicarboxiamide] | .125 µg/mL (≈ 0.304 µM) | .98 µg/mL (≈ 2.39 µM) | –
O=C(CCC(=O)N1CCCCC1)Nc1ccc2c(ccc3c4ccccc4ccc23)c1 [Tx-4, N-(2′-chrysenyl)-4-(1′-piperidinyl)-butane-1,4-dicarboxiamide] | .1 µg/mL (≈ 0.244 µM) | .82 µg/mL (≈ 2 µM) | –
CN1CCN(C(=O)CCC(=O)Nc2cc3c4ccccc4c(Br)cc3c3ccccc23)CC1 [Tx-9, N-(12′-bromo, 6′-chrysenyl)-4-(4′N methyl-piperazinyl)-butane-1,4-dicarboxiamide] | – | – | growth in wells (activity) (various microorganisms): +3 growth (e.g., no activity)
CN1CCN(C(=O)CCC(=O)Nc2ccc3c(c2)c(Br)cc2c4ccccc4ccc32)CC1 [Tx-10, N-(12′-bromo, 2′-chrysenyl)-4-(4′N methyl-piperazinyl)-butane-1,4-dicarboxiamide] | – | – | growth in wells (activity) (various microorganisms): +3 growth (e.g., no activity)
